Data published in patent US8530493B2, “Indolopyridines as Eg5 kinesin modulators” (4SC AG, priority 2006, dated 2013).

Columns and labels:
[1] = test system: RKO p27 or p21 induced (arrested) colon adenocarcinoma cells; assay: Alamar Blue cell viability assay, RKO p27 or p21 induced (arrested); type: cell-based; conditions: Homo sapiens, RKOp27, Table B2, cells arrested by Ponasterone A, 72 hours, read-out: −log EC50 RKO p27 or p21 induced (arrested) (converted)
Method in brief: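 RKOp21 or RKOp27 subclones in DMEM/10% FCS with 10 μM Ponasterone A to induce p21/p27 arrest, seeded 24 h before compound; triplicate 72 h exposure at 37 °C. Alamar Blue fluorescence (544/590 nm) as % of untreated (1% DMSO) cells; EC50 from dose-response curves, reported as −log EC50 (mol/l).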

[2] = test system: RKO p27 or p21 uninduced (proliferating) colon adenocarcinoma cells; assay: Alamar Blue cell viability assay, RKO p27 or p21 uninduced (proliferating); type: cell-based; conditions: Homo sapiens, RKOp27, 72 h, Table B2, anti-proliferative/cytotoxic activity, read-out: −log EC50 RKO p27 or p21 uninduced (proliferating) (converted)
Method in brief: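 Viability read by Alamar Blue fluorescence (ex 544, em 590 nm), normalised to untreated wells, after 72 h, 37° C, 5% CO2 compound exposure in triplicate. Cells were uninduced (no Ponasterone A), proliferating RKO colon carcinoma p27 or p21 subclones in DMEM with 10% FCS; values are −log EC50 (mol/l).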

Question: `COc1ccc2[nH]c3c(c2c1)C[C@@]1(C)C(=O)N(CCCN2CCCC2)C(=O)N1[C@@H]3c1cccc(O)c1` (racemic) [Example 96, (3aSR,10RS)-10-(3-Hydroxy-phenyl)-6-methoxy-3a-methyl-2-(3-pyrrolidin-1-yl-propyl)-3a,4,9,10-tetrahydro-2,9,10a-triaza-cyclopenta[b]fluorene-1,3-dione] was tested. Which EC50 [1] did it give?
Answer: Its EC50 is ≥ 3160 nM.

Question: What about the EC50 [2] of the same molecule?
Answer: The EC50 was ≤ 39.8 nM.

Question: `CCN(CC)CCN1C(=O)N2[C@H](c3cccc(O)c3)c3[nH]c4ccc(OC)cc4c3C[C@@]2(C)C1=O` (racemic) [Example 69, (3aSR,10RS)-2-(2-Diethylamino-ethyl)-10-(3-hydroxy-phenyl)-6-methoxy-3a-methyl-3a,4,9,10-tetrahydro-2,9,10a-triaza-cyclopenta[b]fluorene-1,3-dione] was tested. Which EC50 [1] did it give?
Answer: The EC50 was ≥ 3160 nM.

Question: And the EC50 [2]?
Answer: The EC50 was ≤ 39.8 nM.

Question: `COc1ccc2[nH]c3c(c2c1)C[C@@]1(C)C(=O)N(CCNCCO)C(=O)N1[C@@H]3c1cccc(O)c1` (racemic) [Example 82, (3aSR,10RS)-2-[2-(2-Hydroxy-ethylamino)-ethyl]-10-(3-hydroxy-phenyl)-6-methoxy-3a-methyl-3a,4,9,10-tetrahydro-2,9,10a-triaza-cyclopenta[b]fluorene-1,3-dione] was tested. Which EC50 [1] did it give?
Answer: The EC50 was ≥ 3160 nM.

Question: What about the EC50 [2] of the same molecule?
Answer: The EC50 was ≤ 39.8 nM.

Question: What does the source list for `COc1ccc2[nH]c3c(c2c1)C[C@@]1(C)C(=O)N(CCN2CC=CC2)C(=O)N1[C@@H]3c1cccc(O)c1` (racemic) [Example 119, (3aSR,10RS)-2-[2-(2,5-Dihydro-pyrrol-1-yl)-ethyl]-10-(3-hydroxy-phenyl)-6-methoxy-3a-methyl-3a,4,9,10-tetrahydro-2,9,10a-triaza-cyclopenta[b]fluorene-1,3-dione]?
Answer: EC50 [1]: ≥ 316 nM; EC50 [2]: ≤ 39.8 nM

Question: What does the source list for `C[C@@]12Cc3c([nH]c4ccc(Cl)cc34)[C@@H](c3cccc(O)c3)N1C(=O)N(CCCNC1CCC1)C2=O` (racemic) [Example 138, (3aSR,10RS)-6-Chloro-2-(3-cyclobutylamino-propyl)-10-(3-hydroxy-phenyl)-3a-methyl-3a,4,9,10-tetrahydro-2,9,10a-triaza-cyclopenta[b]fluorene-1,3-dione]?
Answer: EC50 [1]: ≥ 3160 nM; EC50 [2]: ≤ 39.8 nM

Question: How did the EC50 [1] turn out when `CNCCCN1C(=O)N2[C@H](c3cccc(O)c3)c3[nH]c4ccc(Cl)cc4c3C[C@@]2(C)C1=O` (racemic) [Example 130, (3aSR,10RS)-6-Chloro-10-(3-hydroxy-phenyl)-3a-methyl-2-(3-methylamino-propyl)-3a,4,9,10-tetrahydro-2,9,10a-triaza-cyclopenta[b]fluorene-1,3-dione] was run?
Answer: Its EC50 is ≥ 316 nM.

Question: And the EC50 [2]?
Answer: The EC50 was ≤ 39.8 nM.

Question: With `CN1CCN(CCN2C(=O)N3[C@H](c4cccc(O)c4)c4[nH]c5ccc(Cl)cc5c4C[C@@]3(C)C2=O)CC1` (racemic) [Example 111, (3aSR,10RS)-6-Chloro-10-(3-hydroxy-phenyl)-3a-methyl-2-[2-(4-methyl-piperazin-1-yl)-ethyl]-3a,4,9,10-tetrahydro-2,9,10a-triaza-cyclopenta[b]fluorene-1,3-dione] as the molecule, how does the EC50 [1] read?
Answer: Its EC50 is ≥ 316 nM.

Question: What about the EC50 [2] of the same molecule?
Answer: Its EC50 is ≤ 39.8 nM.

Question: What does the source list for `COCCNCCN1C(=O)N2[C@H](c3cccc(O)c3)c3[nH]c4ccc(Cl)cc4c3C[C@@]2(C)C1=O` (racemic) [Example 128, (3aSR,10RS)-6-Chloro-10-(3-hydroxy-phenyl)-2-[2-(2-methoxy-ethylamino)-ethyl]-3a-methyl-3a,4,9,10-tetrahydro-2,9,10a-triaza-cyclopenta[b]fluorene-1,3-dione]?
Answer: EC50 [1]: ≥ 316 nM; EC50 [2]: ≤ 39.8 nM

Question: Which EC50 [1] does the source give for `CCN(CCO)CCCN1C(=O)N2[C@H](c3cccc(O)c3)c3[nH]c4ccc(OC)cc4c3C[C@@]2(C)C1=O` (racemic) [Example 89, (3aSR,10RS)-2-{3-[Ethyl-(2-hydroxy-ethyl)-amino]-propyl}-10-(3-hydroxy-phenyl)-6-methoxy-3a-methyl-3a,4,9,10-tetrahydro-2,9,10a-triaza-cyclopenta[b]fluorene-1,3-dione] here?
Answer: Its EC50 is ≥ 3160 nM.

Question: What about the EC50 [2] of the same molecule?
Answer: The EC50 was ≤ 39.8 nM.

Question: How did the EC50 [1] turn out when `CCN(CCOC)CCN1C(=O)N2[C@H](c3cccc(O)c3)c3[nH]c4ccc(Cl)cc4c3C[C@@]2(C)C1=O` (racemic) [Example 121, (3aSR,10RS)-6-Chloro-2-{2-[ethyl-(2-methoxy-ethyl)-amino]-ethyl}-10-(3-hydroxy-phenyl)-3a-methyl-3a,4,9,10-tetrahydro-2,9,10a-triaza-cyclopenta[b]fluorene-1,3-dione] was run?
Answer: The EC50 was ≥ 316 nM.

Question: And the EC50 [2]?
Answer: Its EC50 is 39.8 to 251 nM.

Question: For `COc1ccc2[nH]c3c(c2c1)C[C@@]1(C)C(=O)N(CCN2CCCCC2)C(=O)N1[C@@H]3c1cccc(O)c1` (racemic) [Example 71, (3aSR,10RS)-10-(3-Hydroxy-phenyl)-6-methoxy-3a-methyl-2-(2-piperidin-1-yl-ethyl)-3a,4,9,10-tetrahydro-2,9,10a-triaza-cyclopenta[b]fluorene-1,3-dione], which EC50 [1] is on record?
Answer: The EC50 was ≥ 3160 nM.

Question: What about the EC50 [2] of the same molecule?
Answer: The EC50 was ≤ 39.8 nM.

Question: Which EC50 [1] does the source give for `C[C@@]12Cc3c([nH]c4ccc(Cl)cc34)[C@@H](c3cccc(O)c3)N1C(=O)N(CCNC1CC1)C2=O` (racemic) [Example 102, (3aSR,10RS)-6-Chloro-2-(2-cyclopropylamino-ethyl)-10-(3-hydroxy-phenyl)-3a-methyl-3a,4,9,10-tetrahydro-2,9,10a-triaza-cyclopenta[b]fluorene-1,3-dione] here?
Answer: Its EC50 is ≥ 3160 nM.

Question: What about the EC50 [2] of the same molecule?
Answer: Its EC50 is ≤ 39.8 nM.

Question: Which results are given for `CC(C)(C)NCCN1C(=O)N2[C@H](c3cccc(O)c3)c3[nH]c4ccc(Cl)cc4c3C[C@@]2(C)C1=O` (racemic) [Example 97, (3aSR,10RS)-2-(2-tert-Butylamino-ethyl)-6-chloro-10-(3-hydroxy-phenyl)-3a-methyl-3a,4,9,10-tetrahydro-2,9,10a-triaza-cyclopenta[b]fluorene-1,3-dione]?
Answer: EC50 [1]: ≥ 3160 nM; EC50 [2]: ≤ 39.8 nM

Question: Which results are given for `CC(C)CNCCCN1C(=O)N2[C@H](c3cccc(O)c3)c3[nH]c4ccc(Cl)cc4c3C[C@@]2(C)C1=O` (racemic) [Example 135, (3aSR,10RS)-6-Chloro-10-(3-hydroxy-phenyl)-2-(3-isobutylamino-propyl)-3a-methyl-3a,4,9,10-tetrahydro-2,9,10a-triaza-cyclopenta[b]fluorene-1,3-dione]?
Answer: EC50 [1]: ≥ 3160 nM; EC50 [2]: ≤ 39.8 nM

Question: `CNCCCN1C(=O)N2[C@H](c3cccc(O)c3)c3[nH]c4ccc(OC)cc4c3C[C@@]2(C)C1=O` (racemic) [Example 76, (3aSR,10RS)-10-(3-Hydroxy-phenyl)-6-methoxy-3a-methyl-2-(3-methylamino-propyl)-3a,4,9,10-tetrahydro-2,9,10a-triaza-cyclopenta[b]fluorene-1,3-dione] was tested. Which EC50 [1] did it give?
Answer: The EC50 was ≥ 3160 nM.

Question: And the EC50 [2]?
Answer: The EC50 was ≤ 39.8 nM.

Question: Which EC50 [1] does the source give for `C=CCN(C)CCCN1C(=O)N2[C@H](c3cccc(O)c3)c3[nH]c4ccc(OC)cc4c3C[C@@]2(C)C1=O` (racemic) [Example 88, (3aSR,10RS)-2-[3-(Allyl-methyl-amino)-propyl]-10-(3-hydroxy-phenyl)-6-methoxy-3a-methyl-3a,4,9,10-tetrahydro-2,9,10a-triaza-cyclopenta[b]fluorene-1,3-dione] here?
Answer: Its EC50 is ≥ 3160 nM.

Question: What about the EC50 [2] of the same molecule?
Answer: Its EC50 is ≤ 39.8 nM.

Question: `COc1ccc2[nH]c3c(c2c1)C[C@@]1(C)C(=O)N(CCCN(C)C(C)C)C(=O)N1[C@@H]3c1cccc(O)c1` (racemic) [Example 94, (3aSR,10RS)-10-(3-Hydroxy-phenyl)-2-[3-(isopropyl-methyl-amino)-propyl]-6-methoxy-3a-methyl-3a,4,9,10-tetrahydro-2,9,10a-triaza-cyclopenta[b]fluorene-1,3-dione] was tested. Which EC50 [1] did it give?
Answer: The EC50 was ≥ 3160 nM.

Question: And the EC50 [2]?
Answer: Its EC50 is ≤ 39.8 nM.

Question: Which results are given for `CC(=O)N1CCN(CCN2C(=O)N3[C@H](c4cccc(O)c4)c4[nH]c5ccc(Cl)cc5c4C[C@@]3(C)C2=O)CC1` (racemic) [Example 114, (3aSR,10RS)-2-[2-(4-Acetyl-piperazin-1-yl)-ethyl]-6-chloro-10-(3-hydroxy-phenyl)-3a-methyl-3a,4,9,10-tetrahydro-2,9,10a-triaza-cyclopenta[b]fluorene-1,3-dione]?
Answer: EC50 [1]: ≥ 316 nM; EC50 [2]: ≤ 39.8 nM

Question: Which results are given for `COc1ccc2[nH]c3c(c2c1)C[C@@]1(C)C(=O)N(CCCN2CC=CC2)C(=O)N1[C@@H]3c1cccc(O)c1` (racemic) [Example 149, (3aSR,10RS)-2-[3-(2,5-Dihydro-pyrrol-1-yl)-propyl]-10-(3-hydroxy-phenyl)-6-methoxy-3a-methyl-3a,4,9,10-tetrahydro-2,9,10a-triaza-cyclopenta[b]fluorene-1,3-dione]?
Answer: EC50 [1]: ≥ 316 nM; EC50 [2]: ≤ 39.8 nM

Question: What does the source list for `COc1ccc2[nH]c3c(c2c1)C[C@@]1(C)C(=O)N(CCN(C)CCO)C(=O)N1[C@@H]3c1cccc(O)c1` (racemic) [Example 118, (3aSR,10RS)-2-{2-[(2-Hydroxy-ethyl)-methyl-amino]-ethyl}-10-(3-hydroxy-phenyl)-6-methoxy-3a-methyl-3a,4,9,10-tetrahydro-2,9,10a-triaza-cyclopenta[b]fluorene-1,3-dione]?
Answer: EC50 [1]: ≥ 316 nM; EC50 [2]: ≤ 39.8 nM

Question: For `CCN(CC)CCN1C(=O)N2[C@H](c3cccc(O)c3)c3[nH]c4ccc(Cl)cc4c3C[C@@]2(C)C1=O` (racemic) [Example 110, (3aSR,10RS)-6-Chloro-2-(2-diethylamino-ethyl)-10-(3-hydroxy-phenyl)-3a-methyl-3a,4,9,10-tetrahydro-2,9,10a-triaza-cyclopenta[b]fluorene-1,3-dione], which EC50 [1] is on record?
Answer: The EC50 was ≥ 316 nM.

Question: What about the EC50 [2] of the same molecule?
Answer: The EC50 was ≤ 39.8 nM.

Question: `CCN(CCO)CCN1C(=O)N2[C@H](c3cccc(O)c3)c3[nH]c4ccc(OC)cc4c3C[C@@]2(C)C1=O` (racemic) [Example 78, (3aSR,10RS)-2-[2-[Ethyl-(2-hydroxy-ethyl)-amino]-ethyl}-10-(3-hydroxy-phenyl)-6-methoxy-3a-methyl-3a,4,9,10-tetrahydro-2,9,10a-triaza-cyclopenta[b]fluorene-1,3-dione] was tested. Which EC50 [1] did it give?
Answer: Its EC50 is ≥ 3160 nM.

Question: What about the EC50 [2] of the same molecule?
Answer: The EC50 was ≤ 39.8 nM.
